From patent US8802597B2, “Herbicidal pyrimidines” (E I du Pont de Nemours and Company, priority 2003, dated 2014)

Tests used:
Assay in all cases: Test C pre/postemergence
Assay type in all cases: in vivo
kochia (Kochia scoparia) = conditions: Bassia scoparia, pre-emergence, Preemergence, read-out: Plant response rating, Kochia
Source text: (§1) Seeds or nutlets of plant species selected from bermudagrass (Cynodon dactylon), Surinam grass (Brachiaria decumbens), cocklebur (Xanthium strumarium), corn (Zea mays), crabgrass (Digitaria sanguinalis), woolly cupgrass (Eriochloa villosa), giant foxtail (Setaria faberii), goosegrass (Eleusine indica), johnsongrass (Sorghum halepense), kochia (Kochia scoparia), lambsquarters (Chenopodium album), morningglory (Ipomoea coccinea), eastern black nightshade (Solanum ptycanthum), yellow nutsedge (Cyperus esculentus), pigweed (Amaranthus retroflexus), common ragweed (Ambrosia elatior), soybean (Glycine max), common (oilseed) sunflower (Helianthus annuus), and velvetleaf (Abutilon theophrasti) were planted and treated preemergence with test chemicals formulated in a non-phytotoxic solvent mixture which included a surfactant.
(§2) At the same time, plants selected from these crop and weed species and also winter barley (Hordeum vulgare), blackgrass (Alopecurus myosuroides), canarygrass (Phalaris minor), chickweed (Stellaria media), downy brome (Bromus tectorum), green foxtail (Setaria viridis), Italian ryegrass (Lolium multiflorum), wheat (Triticum aestivum), wild oat (Avena fatua) and windgrass (Apera spica-venti) were treated with postemergence applications of some of the test chemicals formulated in the same manner. Plants ranged in height from 2 to 18 cm (1- to 4-leaf stage) for postemergence treatments. Plant species in the flooded paddy test consisted of rice (Oryza sativa), umbrella sedge (Cyperus difformis), duck salad (Heteranthera limosa) and barnyardgrass (Echinochloa crus-galli) grown to the 2-leaf stage for testing. Treated plants and controls were maintained in a greenhouse for 12 to 14 days, after which time all species were compared to controls and visually evaluated. Plant response ratings, summarized in Table C, are based on a scale of 0 to 100 where 0 is no effect and 100 is complete control. A dash (-) response means no test result.

[1] = test system: cocklebur (Xanthium strumarium); conditions: Preemergence
Source text: as §1, §2

corn (Zea mays) = conditions: Preemergence
Source text: as §1, §2

[2] = test system: morningglory (Ipomoea coccinea); conditions: Preemergence
Source text: as §1, §2

soybean (Glycine max) = conditions: Preemergence
Source text: as §1, §2

[3] = test system: eastern black nightshade (Solanum ptycanthum); conditions: Preemergence
Source text: as §1, §2

[4] = test system: common (oilseed) sunflower (Helianthus annuus); conditions: Preemergence
Source text: as §1, §2

[5] = test system: johnsongrass (Sorghum halepense); conditions: Preemergence
Source text: as §1, §2

[6] = test system: Surinam grass (Brachiaria decumbens); conditions: Preemergence
Source text: as §1, §2

[7] = test system: giant foxtail (Setaria faberii); conditions: Preemergence
Source text: as §1, §2

[8] = test system: lambsquarters (Chenopodium album); conditions: Preemergence
Source text: as §1, §2

[9] = test system: crabgrass (Digitaria sanguinalis); conditions: Preemergence
Source text: as §1, §2

[10] = 62 g ai/ha, scale 0 to 100, 0 no effect, 100 complete control

## Nc1nc(C2CC2)nc(C=O)c1Br [Compound 26]
Kochia (Kochia scoparia); [10]
  pest or weed control at 62 g/ha: 0%
Kochia (Kochia scoparia); 500 g ai/ha, scale 0 to 100
  pest or weed control at 500 g/ha: 50%
[1]; Xanthium strumarium, pre-emergence, 62 g ai/ha, scale 0 to 100, 0 no effect, 100 complete control, read-out: Plant response rating, Cocklebur
  pest or weed control at 62 g/ha: 70%
[1]; Xanthium strumarium, pre-emergence, 125 g ai/ha, scale 0 to 100, read-out: Plant response rating, Cocklebur
  pest or weed control at 125 g/ha: 70%
[1]; Xanthium strumarium, pre-emergence, 250 g ai/ha, scale 0 to 100, read-out: Plant response rating, Cocklebur
  pest or weed control at 250 g/ha: 90%
[1]; Xanthium strumarium, pre-emergence, 500 g ai/ha, scale 0 to 100, read-out: Plant response rating, Cocklebur
  pest or weed control at 500 g/ha: 95%
Corn (Zea mays); Zea mays, pre-emergence, 62 g ai/ha, scale 0 to 100, 0 no effect, 100 complete control, read-out: Plant response rating, Corn
  Corn plant response rating (crop injury, 0 = no effect, 100 = complete kill) at 62 g/ha: 0%
Corn (Zea mays); Zea mays, pre-emergence, 125 g ai/ha, scale 0 to 100, read-out: Plant response rating, Corn
  Corn plant response rating (crop injury, 0 = no effect, 100 = complete kill) at 125 g/ha: 0%
Corn (Zea mays); Zea mays, pre-emergence, 250 g ai/ha, scale 0 to 100
  Corn plant response rating (crop injury, 0 = no effect, 100 = complete kill) at 250 g/ha: 0%
Corn (Zea mays); Zea mays, pre-emergence, 500 g ai/ha, scale 0 to 100
  Corn plant response rating (crop injury, 0 = no effect, 100 = complete kill) at 500 g/ha: 20%
[2]; Ipomoea, pre-emergence, 62 g ai/ha, scale 0 to 100, 0 no effect, 100 complete control, read-out: Plant response rating, Morningglory
  pest or weed control at 62 g/ha: 0%
[2]; Ipomoea, pre-emergence, 125 g ai/ha, scale 0 to 100, read-out: Plant response rating, Morningglory
  pest or weed control at 125 g/ha: 5%
[2]; Ipomoea, pre-emergence, 250 g ai/ha, scale 0 to 100, read-out: Plant response rating, Morningglory
  pest or weed control at 250 g/ha: 85%
[2]; Ipomoea, pre-emergence, 500 g ai/ha, scale 0 to 100, read-out: Plant response rating, Morningglory
  pest or weed control at 500 g/ha: 90%
Soybean (Glycine max); Glycine max, pre-emergence, 62 g ai/ha, scale 0 to 100, 0 no effect, 100 complete control, read-out: Plant response rating, Soybean
  plant injury at 62 g/ha: 0%
Soybean (Glycine max); Glycine max, pre-emergence, 125 g ai/ha, scale 0 to 100, read-out: Plant response rating, Soybean
  plant injury at 125 g/ha: 10%
Soybean (Glycine max); Glycine max, pre-emergence, 250 g ai/ha, scale 0 to 100, read-out: Plant response rating, Soybean
  plant injury at 250 g/ha: 10%
Soybean (Glycine max); Glycine max, pre-emergence, 500 g ai/ha, scale 0 to 100, read-out: Plant response rating, Soybean
  plant injury at 500 g/ha: 20%
[3]; Solanum, pre-emergence, 62 g ai/ha, scale 0 to 100, 0 no effect, 100 complete control, read-out: Plant response rating, Nightshade
  pest or weed control at 62 g/ha: 10%
[3]; Solanum, pre-emergence, 125 g ai/ha, scale 0 to 100, read-out: Plant response rating, Nightshade
  pest or weed control at 125 g/ha: 100%
[3]; Solanum, pre-emergence, 250 g ai/ha, scale 0 to 100, read-out: Plant response rating, Nightshade
  pest or weed control at 250 g/ha: 100%
[3]; Solanum, pre-emergence, 500 g ai/ha, scale 0 to 100, read-out: Plant response rating, Nightshade
  pest or weed control at 500 g/ha: 100%
[4]; Helianthus annuus, pre-emergence, 62 g ai/ha, scale 0 to 100, 0 no effect, 100 complete control, read-out: Plant response rating, Sunflower
  pest or weed control at 62 g/ha: 0%
[4]; Helianthus annuus, pre-emergence, 125 g ai/ha, scale 0 to 100, read-out: Plant response rating, Sunflower
  pest or weed control at 125 g/ha: 20%
[4]; Helianthus annuus, pre-emergence, 250 g ai/ha, scale 0 to 100, read-out: Plant response rating, Sunflower
  pest or weed control at 250 g/ha: 70%
[4]; Helianthus annuus, pre-emergence, 500 g ai/ha, scale 0 to 100, read-out: Plant response rating, Sunflower
  pest or weed control at 500 g/ha: 90%
[5]; Sorghum halepense, pre-emergence, 62 g ai/ha, scale 0 to 100, 0 no effect, 100 complete control, read-out: Plant response rating, Johnsongrass
  pest or weed control at 62 g/ha: 0%
[5]; Sorghum halepense, pre-emergence, 250 g ai/ha, scale 0 to 100, read-out: Plant response rating, Johnsongrass
  pest or weed control at 250 g/ha: 0%
[5]; Sorghum halepense, pre-emergence, 500 g ai/ha, scale 0 to 100, read-out: Plant response rating, Johnsongrass
  pest or weed control at 500 g/ha: 100%
[6]; Urochloa decumbens, pre-emergence, 62 g ai/ha, scale 0 to 100, 0 no effect, 100 complete control, read-out: Plant response rating, Surinam Grass
  pest or weed control at 62 g/ha: 0%
[6]; Urochloa decumbens, pre-emergence, 125 g ai/ha, scale 0 to 100, read-out: Plant response rating, Surinam Grass
  pest or weed control at 125 g/ha: 0%
[6]; Urochloa decumbens, pre-emergence, 250 g ai/ha, scale 0 to 100, read-out: Plant response rating, Surinam Grass
  pest or weed control at 250 g/ha: 10%
[6]; Urochloa decumbens, pre-emergence, 500 g ai/ha, scale 0 to 100, read-out: Plant response rating, Surinam Grass
  pest or weed control at 500 g/ha: 10%
[7]; Setaria faberi, pre-emergence, 62 g ai/ha, scale 0 to 100, 0 no effect, 100 complete control, read-out: Plant response rating, Foxtail, Giant
  pest or weed control at 62 g/ha: 0%
[7]; Setaria faberi, pre-emergence, 125 g ai/ha, scale 0 to 100, read-out: Plant response rating, Foxtail, Giant
  pest or weed control at 125 g/ha: 0%
[7]; Setaria faberi, pre-emergence, 250 g ai/ha, scale 0 to 100, read-out: Plant response rating, Foxtail, Giant
  pest or weed control at 250 g/ha: 0%
[7]; Setaria faberi, pre-emergence, 500 g ai/ha, scale 0 to 100, read-out: Plant response rating, Foxtail, Giant
  pest or weed control at 500 g/ha: 10%
[8]; Chenopodium album, pre-emergence, 62 g ai/ha, scale 0 to 100, 0 no effect, 100 complete control, read-out: Plant response rating, Lambsquarters
  pest or weed control at 62 g/ha: 10%
[8]; Chenopodium album, pre-emergence, 500 g ai/ha, scale 0 to 100, read-out: Plant response rating, Lambsquarters
  pest or weed control at 500 g/ha: 90%

## CCOC(=O)c1nc(C2CC2)nc(N=CN(C)C)c1Br [Compound 40]
[1]; [10]
  Plant response rating, Cocklebur: 5
[1]; 125 g ai/ha, scale 0 to 100
  Plant response rating, Cocklebur: 70
[1]; 250 g ai/ha, scale 0 to 100
  Plant response rating, Cocklebur: 90
[1]; 500 g ai/ha, scale 0 to 100
  Plant response rating, Cocklebur: 100
Corn (Zea mays); [10]
  Plant response rating, Corn: 0
Corn (Zea mays); 125 g ai/ha, scale 0 to 100
  Plant response rating, Corn: 20
Corn (Zea mays); 250 g ai/ha, scale 0 to 100
  Plant response rating, Corn: 20
Corn (Zea mays); 500 g ai/ha, scale 0 to 100
  Plant response rating, Corn: 40
[2]; 125 g ai/ha, scale 0 to 100
  Plant response rating, Morningglory: 90
[2]; 250 g ai/ha, scale 0 to 100
  Plant response rating, Morningglory: 90
[2]; 500 g ai/ha, scale 0 to 100
  Plant response rating, Morningglory: 100
Soybean (Glycine max); [10]
  Plant response rating, Soybean: 10
Soybean (Glycine max); 125 g ai/ha, scale 0 to 100
  Plant response rating, Soybean: 40
Soybean (Glycine max); 250 g ai/ha, scale 0 to 100
  Plant response rating, Soybean: 90
Soybean (Glycine max); 500 g ai/ha, scale 0 to 100
  Plant response rating, Soybean: 95
[3]; [10]
  Plant response rating, Nightshade: 100
[3]; 125 g ai/ha, scale 0 to 100
  Plant response rating, Nightshade: 100
[3]; 250 g ai/ha, scale 0 to 100
  Plant response rating, Nightshade: 100
[3]; 500 g ai/ha, scale 0 to 100
  Plant response rating, Nightshade: 100
[4]; [10]
  Plant response rating, Sunflower: 5
[4]; 125 g ai/ha, scale 0 to 100
  Plant response rating, Sunflower: 90
[4]; 250 g ai/ha, scale 0 to 100
  Plant response rating, Sunflower: 90
[4]; 500 g ai/ha, scale 0 to 100
  Plant response rating, Sunflower: 95
[5]; [10]
  Plant response rating, Johnsongrass: 0
[5]; 125 g ai/ha, scale 0 to 100
  Plant response rating, Johnsongrass: 80
[5]; 250 g ai/ha, scale 0 to 100
  Plant response rating, Johnsongrass: 80
[5]; 500 g ai/ha, scale 0 to 100
  Plant response rating, Johnsongrass: 95
[6]; 125 g ai/ha, scale 0 to 100
  Plant response rating, Surinam Grass: 0
[6]; 250 g ai/ha, scale 0 to 100
  Plant response rating, Surinam Grass: 10
[6]; 500 g ai/ha, scale 0 to 100
  Plant response rating, Surinam Grass: 90
[9]; [10]
  Plant response rating, Crabgrass: 5
[9]; 500 g ai/ha, scale 0 to 100
  Plant response rating, Crabgrass: 100
[7]; [10]
  Plant response rating, Foxtail, Giant: 0
[7]; 125 g ai/ha, scale 0 to 100
  Plant response rating, Foxtail, Giant: 0
[7]; 250 g ai/ha, scale 0 to 100
  Plant response rating, Foxtail, Giant: 30
[7]; 500 g ai/ha, scale 0 to 100
  Plant response rating, Foxtail, Giant: 35
[8]; [10]
  Plant response rating, Lambsquarters: 100
[8]; 125 g ai/ha, scale 0 to 100
  Plant response rating, Lambsquarters: 100
[8]; 250 g ai/ha, scale 0 to 100
  Plant response rating, Lambsquarters: 100
[8]; 500 g ai/ha, scale 0 to 100
  Plant response rating, Lambsquarters: 100
